Test results: patent publication US20220000911A1, “COMBINATION OF GOLD COMPLEXES WITH OLAPARIB OR OTHER PARP1/2 INHIBITORS FOR USE IN THE TREATMENT OF CANCER RESISTANT TO SAID PARP1/2 INHIBITORS” (Varsity Pharmaceuticals Limited, priority 2020, published 2022)

Legend:
Format in all cases: cell-based
[1] = tested on: wildtype A2780 ovarian cancer cells; assay: CellTiter Glo proliferation inhibition, wild-type A2780 cells; conditions: for Mean Inhibition (n = 3): wildtype A2780
Protocol: The A2780 cell line is an ovarian cancer cell line that was established from an ovarian endometroid adenocarcinoma tumour. […] It is commonly used as a model to observe the effects of, and test the potency of various chemicals, methods of delivery and treatments for ovarian cancer. […] The cells were diluted with culture medium and 40 μL of cell suspension (1000 cells/well) was added into each well of a 384-well cell culture plate. The plate was covered with a lid and left at room temperature without shaking for 30 minutes. The plate was then transferred to an incubator at 37° C. and 5% CO2 and left overnight. Test compounds were dissolved at a concentration of 30 mM in DMSO to create a stock solution. 45 μL of the stock solution was transferred to a 384 pp-plate. […] The plate was then spun at room temperature at 1,000 RPM for 1 minute. 40 nL of the diluted compound was then transferred from the compound source plate into the cell plate. The cell plate was then covered with a lid and placed in an incubator at 37° C. and 5% CO2 and left for 120 hours. 72 hours after treatment with the compound detection was conducted as discussed below. CellTiter Glo® reagents were thawed and equilibrated to room temperature. The cell plate was then removed from the incubator and equilibrated at room temperature for 15 minutes. 30 μL of the CellTiter Glo® reagents were then added into each well (at 1:1 to culture medium). The contents was mixed for 2 minutes on an orbital shaker to induce cell lysis and then the plates were allowed to incubate at room temperature for 30 minutes. Luminescence was then measured on an Envision reader (Perkin Elmer). The inhibition activity was calculated using the following formula: […]

[2] = tested on: olaparib resistant A2780 ovarian cancer cells; assay: CellTiter Glo proliferation inhibition, olaparib resistant A2780 cells, single agents; conditions: for Mean Inhibition (n = 3): olaparib resistant A2780
Protocol: A2780 ovarian cancer cells (wild-type “WT”) were cultured in RPMI 1640 Medium with 10% Fetal Bovine Serum (FBS).
To obtain cells resistant to olaparib, the cells were cultured in cell culture medium (RPMI 1640 Medium with 10% FBS) supplemented with 20 μM olaparib for one month in order to generate A2780 cells resistant to olaparib (“R”). After a month the cells were continuously cultured in the cell culture medium (RPMI 1640 Medium with 10% FBS) supplemented with 10 μM olaparib prior to use and for up to two months to maintain the resistance.
(§1) The cells were harvested from a flask into cell culture medium (RPMI 1640 Medium with 10% FBS) and then counted. The cells were diluted with culture medium and 40 μL of cell suspension (1000 cells/well) was added into each well of a 384-well cell culture plate. The plate was covered with a lid and left at room temperature without shaking for 30 minutes. The plate was then transferred to an incubator at 37° C. and 5% CO2 and left overnight.
Test compounds were dissolved at a concentration of 30 mM in DMSO to create a stock solution. 45 μL of the stock solution was transferred to a 384 pp-plate. […] The plate was then spun at room temperature at 1,000 RPM for 1 minute. 40 nL of the diluted compound was then transferred from the compound source plate into the cell plate. The cell plate was then covered with a lid and placed in an incubator at 37° C. and 5% CO2 and left for 120 hours. 72 hours after treatment with the compound detection was conducted as discussed below.
(§2) CellTiter Glo® reagents were thawed and equilibrated to room temperature. The cell plate was then removed from the incubator and equilibrated at room temperature for 15 minutes. 30 μL of the CellTiter Glo® reagents were then added into each well (at 1:1 to culture medium). The contents was mixed for 2 minutes on an orbital shaker to induce cell lysis and then the plates were allowed to incubate at room temperature for 30 minutes. Luminescence was then measured on an Envision reader (Perkin Elmer).
The inhibition activity was calculated using the following formula:
(§3) Inhibition (%)=100×(Lumvehicle−Lumsample)/(Lumvehicle−Lumblank),
where Lumvehicle is the luminescence of cells treated with 0.1% DMSO and Lumblank is cells in the culture medium.
The IC50 was calculated by fitting the curve using Xlfit (v5.3.1.3), equation 201: […]

[3] = tested on: olaparib resistant HCC1937 triple negative breast cancer cells; assay: Proliferation inhibition of olaparib resistant HCC1937 cells, single agents
Protocol: as §1
Test compounds were dissolved at a concentration of 30 mM in DMSO to create a stock solution. 45 μL of the stock solution was transferred to a 384 pp-plate. A 3-fold, 10-point dilution was performed by transferring 15 μL of the compound solution into 30 μL DMSO by using TECAN (EVO200) liquid handler. The plate was then spun at room temperature at 1,000 RPM for 1 minute. 40 nL of the diluted compound was then transferred from the compound source plate into the cell plate. The cell plate was then covered with a lid and placed in an incubator at 37° C. and 5% CO2 and left for 120 hours. 72 hours after treatment with the compound detection was conducted as discussed below.
as §2, §3
The methods were as described in examples 1 and 2, except the HCC1937 cell line was used.
The HCC1937 cell line was established from a primary breast carcinoma from a patient with a germ-line BRCA1 mutation. It is an example of a triple-negative breast cancer (TNBC) cell line. Breast cancer patients routinely have the expression of estrogen receptor (ER), progesterone receptor (PR), and amplification of HER-2/Neu evaluated. […] The latter group is referred to as triple-negative breast cancer based on the lack of these three molecular markers. TNBC represents approximately 10-15% of all breast cancers and patients with TNBC have a poor outcome compared to the other subtypes of breast cancer.

[4] = concentration range 0.06 nM to 30,000 nM

## CC(=O)OC[C@H]1O[C@@H]([S-])[C@H](OC(C)=O)[C@@H](OC(C)=O)[C@@H]1OC(C)=O.CCP(CC)CC.[Au+] [Auranofin, auranofin]
[1]; [4]
  Maximum inhibition observed in wild-type A2780 cells: 100%
[1]; wild-type A2780 cells
  IC50: 101 nM
[1]; test conc. 1.52 nM
  Mean Inhibition (n = 3): −1.87%
[1]; test conc. 4.57 nM
  Mean Inhibition (n = 3): −0.74%
[1]; test conc. 13.72 nM
  Mean Inhibition (n = 3): 2.52%
[1]; test conc. 41.15 nM
  Mean Inhibition (n = 3): 21.08%
[1]; test conc. 123.46 nM
  Mean Inhibition (n = 3): 56.32%
[1]; test conc. 370.37 nM
  Mean Inhibition (n = 3): 86.25%
[1]; test conc. 1,111.11 nM
  Mean Inhibition (n = 3): 98.39%
[1]; test conc. 3,333.33 nM
  Mean Inhibition (n = 3): 100.15%
[1]; test conc. 10,000 nM
  Mean Inhibition (n = 3): 100.17%
[1]; test conc. 30,000 nM
  Mean Inhibition (n = 3): 100.20%
[2]; [4]
  Maximum inhibition observed in olaparib resistant A2780 cells: 100%
[2]; test conc. 1.52 nM
  Mean Inhibition (n = 3): 4.64%
[2]; test conc. 4.57 nM
  Mean Inhibition (n = 3): 3.42%
[2]; test conc. 13.72 nM
  Mean Inhibition (n = 3): 12.34%
[2]; test conc. 41.15 nM
  Mean Inhibition (n = 3): 41.07%
[2]; test conc. 123.46 nM
  Mean Inhibition (n = 3): 78.31%
[2]; test conc. 370.37 nM
  Mean Inhibition (n = 3): 96.38%
[2]; test conc. 1,111.11 nM
  Mean Inhibition (n = 3): 96.82%
[2]; test conc. 3,333.33 nM
  Mean Inhibition (n = 3): 100.13%
[2]; test conc. 10,000 nM
  Mean Inhibition (n = 3): 100.19%
[2]; test conc. 30,000 nM
  Mean Inhibition (n = 3): 100.17%
[2]; olaparib resistant A2780 cells
  IC50: 55 nM
[3]; test conc. 1.52 nM
  Mean Inhibition (n = 3): −8.11%
[3]; test conc. 4.57 nM
  Mean Inhibition (n = 3): 0.54%
[3]; test conc. 13.72 nM
  Mean Inhibition (n = 3): −0.91%
[3]; test conc. 41.15 nM
  Mean Inhibition (n = 3): 0.49%
[3]; test conc. 123.46 nM
  Mean Inhibition (n = 3): 0.54%
[3]; test conc. 370.37 nM
  Mean Inhibition (n = 3): 13.11%
[3]; test conc. 1,111.11 nM
  Mean Inhibition (n = 3): 59.64%
[3]; test conc. 3,333.33 nM
  Mean Inhibition (n = 3): 98.95%
[3]; test conc. 10,000 nM
  Mean Inhibition (n = 3): 100.03%
[3]; test conc. 30,000 nM
  Mean Inhibition (n = 3): 99.97%
